Measurements: PubChem BioAssay AID1918936 (Molecular Pharmacology Branch, DTP, NCI, 2023)

Test system: 349418-098-R-PDC complex spheroid viability
Assay: Anticancer human tumor 349418-098-R-PDC patient-derived lung adenocarcinoma cell line growth inhibition
Settings: for IC50: curve of first compound; for viability, T/C: stronger effect = lower value
Text: Multicellular complex tumor spheroid response to LSD1 Inhibitor Iadademstat in combination with a variety of drugs and investigational agents in selected tumor cell lines
The current study was undertaken to assess response to LSD1 inhibitors in combination with standard-of-care drugs and investigational agents in solid tumor complex spheroid models as well as in the K-562 leukemia. Complex spheroids include a stromal component modeled by human endothelial cells (HUVEC) and fibroblasts modeled by human mesenchymal stem cells (MSCs). The concentration ranges selected for each drug and investigational agent were based upon clinically achievable concentrations if the clinical Cmax of the agent was known.
Compounds. The drugs and investigational agents used in this study are listed on Table 1. All of the agents used, including staurosporine (NSC755774) and gemcitabine (NSC613327), were obtained from the Developmental Therapeutics Program, NCI. FDA-approved anticancer drugs are available from the NCI at http://dtp.nci.nih.gov/branches/dscb/oncology_drugset_explanation.html. Drugs and investigational agents were >95% pure by proton nuclear magnetic resonance (NMR) and liquid chromatography/mass spectrometry (LC/MS). Stock solutions were prepared at 400x in DMSO, stored at -70 degrees C, and diluted in fresh medium prior to their use. The final concentration of DMSO in cell culture wells never exceeded 0.25% (v/v). The FDA-approved anticancer drug set is available from the Developmental Therapeutics Program at https://dtp.cancer.gov/organization/dscb/obtaining/available_plates.htm. All drugs and investigational agents were tested over a range starting from a high concentration at or near the clinical Cmax and decreasing in half-log increments. If the clinical Cmax for an agent had not been determined, the highest concentration tested was 10 microM.
Cell Lines. The patient-derived cancer cell (PDC) lines: 292921-168-R-J2-PDC, K24384-001-R-PDC, and 521955-158-R2-J5-PDC pancreatic carcinomas, 556581-035-R-J1 ovarian carcinoma, 324938-238-R-J1-PDC, 855422-203-R-J1-PDC and 883617-216-R-J1-PDC urothelial bladder carcinomas, 743489-274-T-PDC renal cell carcinoma, 138582-R-J1 Merkel cell tumor, K60290-347-R-J1 and K57222-313-R-J1-PDC glioblastomas, 653999-131-R-J2-PDC, LG0703-F948-PDC, and 349418-098-R-PDC non-small cell lung carcinomas, 885512-296-R-J2-PDC, 171881-019-R-J1-PDC breast carcinomas and 186277-243-T-J2-PDC and 233499-124-R-J2-PDC colon carcinomas were obtained from the NCI Patient-Derived Models Repository (PDMR, https://pdmr.cancer.gov). The established cell lines NCI/ADR-RES (RRID:CVCL_14520 and OVCAR-5 (RRID:CVCL_1628) ovarian carcinomas, 786-O (RRID:CVCL_1051) and A498 (RRID:CVCL_A498) renal cell carcinoma, NCI-H211 (ATCC, cat. CRL-5824; RRID:CVCL_1529), NCI-H196 (ATCC, cat. CRL-5823, RRID:CVCL_1509), SW 1271 (ATCC, cat. CRL-2177, RRID:CVCL_1716) and NCI-H1876 (ATCC, cat. CRL-5902, RRID:CVCL_1503) small cell lung carcinomas, MDA-MB-231 (RRID:CVCL_0062) and MDA-MB-468 (RRID:CVCL_0419)breast carcinomas (10-12). Pooled donor human umbilical vein endothelial cells (HUVEC, Lonza, cat. CC-2519) and human mesenchymal stem cells (hMSC, Lonza, cat. PT-2501) were purchased from Lonza (Walkersville, MD).
Cell Culture. All cells were maintained in an incubator at 37 degrees C and 5% CO2 with 95% humidity. The PDC lines were cultured according to standard operating procedures established by the NCI PDMR (https://pdmr.cancer.gov). Briefly all PDCs were thawed and cultured in Matrigel-coated flasks prepared with a working solution of 1X Ham's F-12 nutrient mix, without supplementation (Invitrogen, Waltham, MA, cat. 11765054), 100 U/mL penicillin-streptomycin (Invitrogen, cat. 15140122), and 2.5% Matrigel (Corning Inc., Corning, NY, cat. 354248) for the first three passages. […]
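Also: spheroids exposed to agents for seven days before readout.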
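For viability, T/C in this document: 100% = DMSO vehicle control wells.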

## COc1cc(C2c3cc4c(cc3C(OC3OC5COC(C)OC5C(O)C3O)C3COC(=O)C23)OCO4)cc(OC)c1O (stereo not given) + NC1CC1c1ccc(-c2cccc(O)c2)cc1
Second compound 0.1 µM
  IC50: 61.1 nM
Second compound 0.316 µM
  IC50: 62.7 nM
Second compound 1 µM
  IC50: 67.3 nM
Second compound 3.16 µM
  IC50: 57.1 nM
Second compound 10 µM
  IC50: 35 nM
Second compound 0.1 µM, first compound 0.00949 µM
  viability, T/C: 108%
Second compound 0.1 µM, first compound 0.03 µM
  viability, T/C: 86.4%
Second compound 0.1 µM, first compound 0.0949 µM
  viability, T/C: 27.3%
Second compound 0.1 µM, first compound 0.3 µM
  viability, T/C: 7.24%
Second compound 0.1 µM, first compound 0.949 µM
  viability, T/C: 3.83%
Second compound 0.1 µM, first compound 3 µM
  viability, T/C: 3.5%
Second compound 0.316 µM, first compound 0.00949 µM
  viability, T/C: 114%
Second compound 0.316 µM, first compound 0.03 µM
  viability, T/C: 89.4%
Second compound 0.316 µM, first compound 0.0949 µM
  viability, T/C: 27.7%
Second compound 0.316 µM, first compound 0.3 µM
  viability, T/C: 7.71%
Second compound 0.316 µM, first compound 0.949 µM
  viability, T/C: 3.95%
Second compound 0.316 µM, first compound 3 µM
  viability, T/C: 2.97%
Second compound 1 µM, first compound 0.00949 µM
  viability, T/C: 97.6%
Second compound 1 µM, first compound 0.03 µM
  viability, T/C: 92.7%
Second compound 1 µM, first compound 0.0949 µM
  viability, T/C: 31.8%
Second compound 1 µM, first compound 0.3 µM
  viability, T/C: 6.96%
Second compound 1 µM, first compound 0.949 µM
  viability, T/C: 3.37%
Second compound 1 µM, first compound 3 µM
  viability, T/C: 2.89%
Second compound 3.16 µM, first compound 0.00949 µM
  viability, T/C: 114%
Second compound 3.16 µM, first compound 0.03 µM
  viability, T/C: 83.5%
Second compound 3.16 µM, first compound 0.0949 µM
  viability, T/C: 23.5%
Second compound 3.16 µM, first compound 0.3 µM
  viability, T/C: 7.14%
Second compound 3.16 µM, first compound 0.949 µM
  viability, T/C: 3.98%
Second compound 3.16 µM, first compound 3 µM
  viability, T/C: 3.63%
Second compound 10 µM, first compound 0.00949 µM
  viability, T/C: 95.6%
Second compound 10 µM, first compound 0.03 µM
  viability, T/C: 55.4%
Second compound 10 µM, first compound 0.0949 µM
  viability, T/C: 14.7%
Second compound 10 µM, first compound 0.3 µM
  viability, T/C: 5.55%
Second compound 10 µM, first compound 0.949 µM
  viability, T/C: 3.81%
Second compound 10 µM, first compound 3 µM
  viability, T/C: 3.47%

## Nc1ncn(C2CC(O)C(CO)O2)c(=O)n1 (stereo not given) + NC1CC1c1ccc(-c2cccc(O)c2)cc1
Second compound 0.1 µM
  IC50: 89.4 nM
Second compound 0.316 µM
  IC50: 90.3 nM
Second compound 1 µM
  IC50: 88.5 nM
Second compound 3.16 µM
  IC50: 95.3 nM
Second compound 10 µM
  IC50: 62.8 nM
Second compound 0.1 µM, first compound 0.00316 µM
  viability, T/C: 102%
Second compound 0.1 µM, first compound 0.01 µM
  viability, T/C: 99.1%
Second compound 0.1 µM, first compound 0.0316 µM
  viability, T/C: 78.3%
Second compound 0.1 µM, first compound 0.1 µM
  viability, T/C: 45.8%
Second compound 0.1 µM, first compound 0.316 µM
  viability, T/C: 37.3%
Second compound 0.1 µM, first compound 1 µM
  viability, T/C: 28.2%
Second compound 0.316 µM, first compound 0.00316 µM
  viability, T/C: 113%
Second compound 0.316 µM, first compound 0.01 µM
  viability, T/C: 95%
Second compound 0.316 µM, first compound 0.0316 µM
  viability, T/C: 88.4%
Second compound 0.316 µM, first compound 0.1 µM
  viability, T/C: 44.2%
Second compound 0.316 µM, first compound 0.316 µM
  viability, T/C: 32.9%
Second compound 0.316 µM, first compound 1 µM
  viability, T/C: 27.9%
Second compound 1 µM, first compound 0.00316 µM
  viability, T/C: 105%
Second compound 1 µM, first compound 0.01 µM
  viability, T/C: 105%
Second compound 1 µM, first compound 0.0316 µM
  viability, T/C: 83.4%
Second compound 1 µM, first compound 0.1 µM
  viability, T/C: 45.8%
Second compound 1 µM, first compound 0.316 µM
  viability, T/C: 32.5%
Second compound 1 µM, first compound 1 µM
  viability, T/C: 27.1%
Second compound 3.16 µM, first compound 0.00316 µM
  viability, T/C: 111%
Second compound 3.16 µM, first compound 0.01 µM
  viability, T/C: 108%
Second compound 3.16 µM, first compound 0.0316 µM
  viability, T/C: 85.5%
Second compound 3.16 µM, first compound 0.1 µM
  viability, T/C: 48.4%
Second compound 3.16 µM, first compound 0.316 µM
  viability, T/C: 30.6%
Second compound 3.16 µM, first compound 1 µM
  viability, T/C: 25.1%
Second compound 10 µM, first compound 0.00316 µM
  viability, T/C: 92.4%
Second compound 10 µM, first compound 0.01 µM
  viability, T/C: 78.3%
Second compound 10 µM, first compound 0.0316 µM
  viability, T/C: 67.8%
Second compound 10 µM, first compound 0.1 µM
  viability, T/C: 38.3%
Second compound 10 µM, first compound 0.316 µM
  viability, T/C: 28%
Second compound 10 µM, first compound 1 µM
  viability, T/C: 26.7%
